Values joined by “and” are separate entries in the source; they are usually repeats but may differ in a detail not shown here. Equal entries are not always repeated. “Also recorded” adds a separate entry of the source.
How the values were obtained:
Panx1 channels [1] = molecular target: T1, Panx1 channels (Rattus norvegicus, UniProt P60570); assay: Whole-cell patch-clamp, unitary Panx1 channel current activity in C6-Panx1 cells; type: cell-based; conditions: for nominal open probability (NPo) of Panx1 channels: preincubated 45 min, C6-Panx1, step −30 to +70 mV, 30 s, mean ± SEM, control 0.37 ± 0.02; for reduction of NPo of Panx1 channels: vs control
T1 construct: expressed in transfected cells; host or cells: C6 glioma cells (C6-Panx1), gift of Dr Christian C; Naus
T1 sequence (P60570 whole entry): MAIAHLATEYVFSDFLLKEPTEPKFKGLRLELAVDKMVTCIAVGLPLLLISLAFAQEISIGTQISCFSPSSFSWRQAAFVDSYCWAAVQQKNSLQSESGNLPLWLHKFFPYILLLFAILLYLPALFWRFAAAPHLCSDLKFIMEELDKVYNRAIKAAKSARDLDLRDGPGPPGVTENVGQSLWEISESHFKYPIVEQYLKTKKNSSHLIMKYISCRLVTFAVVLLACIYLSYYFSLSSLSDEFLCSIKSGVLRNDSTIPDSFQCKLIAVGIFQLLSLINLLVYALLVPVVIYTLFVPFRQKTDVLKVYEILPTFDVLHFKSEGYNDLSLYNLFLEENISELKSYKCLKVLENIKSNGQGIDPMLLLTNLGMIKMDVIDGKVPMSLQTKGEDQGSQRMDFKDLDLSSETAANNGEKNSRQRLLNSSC
Excerpt: (§1) We used HeLa cells stably transfected with Cx43 (HeLa-Cx43 [56]); endogenous expression of Panx1 is very low or absent in non-transfected HeLa cells. C6 glioma cells stably transfected with Panx1 (C6-Panx1, C-terminally myc-tagged; kind gift of Dr Christian C. Naus, University of British Columbia, Canada) were used for the Panx1 channel studies; Cx43 expression is low or undetectable [61] in these cells. HeLa cells were maintained in Dulbecco’s modified Eagle’s medium (DMEM; Invitrogen, Gent, Belgium), and C6 cells were grown in DMEM:Ham’s F12 (1:1—Invitrogen, Merelbeke, Belgium), all supplemented with 10% fetal bovine serum (FBS), 2 mM glutamine, 10 U/mL penicillin, 10 µg/mL streptomycin and 0.25 µg/mL fungizone. Stable exogenous expressions were maintained by supplementation of 1 and 3 µg/mL puromycin (Sigma-Aldrich, Bornem, Belgium) for HeLa-Cx43 and C6-Panx1 cells, respectively. Stable transfectants were subcultured into puromycin-free medium 2 days prior to experimentation. Cells were maintained at 37 °C and 10% (HeLa-Cx43) or 5% (C6-Panx1) CO2.
(§2) All experimental data were obtained with the patch-clamp technique in whole-cell recording mode on HeLa-Cx43 and C6-Panx1 cells. Extracellular solution was composed of the following (in mM): 150 NaCl, 4 CsCl, 2 CaCl2, 2 MgCl2, 2 pyruvic acid, 5 glucose and 5 HEPES at pH of 7.4, while the pipette solution consisted of the following (in mM): 125 CsCl, 10 sodium aspartate (NaAsp), 0.26 CaCl2, 1 MgCl2, 2 EGTA, 10 tetraethylammonium (TEA)-Cl and 5 HEPES at pH 7.2. The free Ca^2+ concentration of the pipette solution was estimated to be ~50 nM as calculated with WEBMAX (https://somapp.ucdmc.ucdavis.edu/pharmacology/bers/maxchelator/webmaxc/webmaxcS.htm; accessed on 20 September 2020). Whole-cell recording was performed under control conditions and in the presence of Gap19 or ^10Panx1. Gap19 was included in the pipette solution, while ^10Panx1 was added externally and preincubated for 45 min. Recordings were commenced 2 min after establishment of the whole-cell configuration. Currents were recorded with an EPC 7 PLUS patch-clamp amplifier (HEKA Elektronik, Germany). Unitary current activities were elicited by stepping the cells from a holding potential of −30 mV to a membrane potential (Vm) of +70 mV for 30 s. Data were digitized at 4 KHz using an NI USB-6221 data acquisition device (National Instruments, Austin, TX, USA) and WinWCP acquisition software designed by Dr. J. Dempster (University of Strathclyde, United Kingdom). Measured currents were filtered by a 7-pole Bessel low-pass filter at 1 KHz cut-off frequency. Transition analysis was performed as reported in [16]. Unitary channel conductances were determined from transition histograms as well as from all-point histograms and were obtained by fitting their frequencies to Gaussian distributions. Channel opening activity is expressed as nominal open probability NPo, denoting the number of active channels in the patch multiplied by the open probability.
(§3) Data were processed using Clampfit version 11.2 (Molecular Devices, San Jose, USA) and HemiGUI software as previously described. Results are expressed as mean ± SEM (unless otherwise stated), with n giving the number of traces, N the number of cells, and N the number of experiments on different cell culture dishes. Multiple groups were compared by one-way analysis of variance with post-hoc Dunnett’s or Bonferroni multiple comparison tests, making use of GraphPad PRISM 5.0 (GraphPad Software, Inc., La Jolla, CA). Results were considered statistically significant when p ≤ 0.05 (*; # for p ≤ 0.05, **; ## for p ≤ 0.01, ***; ### for p ≤ 0.001, and ****; #### for p ≤ 0.0001).

Cx46 HC = conditions: cited from earlier work
Excerpt: (§4) Connexins and pannexins are two ubiquitous but distinct protein families forming membrane hemichannels (HCs) and channels in the plasma membrane, respectively. They facilitate the exchange of ions and small molecules (MW ≤ 1.5 kDa) between the intracellular and the extracellular compartment upon opening. Among these respective families, connexin-43 (Cx43) and pannexin-1 (Panx1) are the most abundant isotypes in the human body expressed in a wide array of tissues. Panx1 and Cx43 have several common properties, including the following: (i) an analogous tetra-spanning transmembrane topology with ...

Cx43 or Panx1 channels = conditions: 100 μM extracellular; HeLa cells expressing Cx43 or Panx1; cited from earlier work
Excerpt: as §4

Panx1 channels [2] = molecular target: T1, Panx1 channels; conditions: 200 µM extracellular; high extracellular K^+; cited from earlier work
Excerpt: as §4

Cx43 HCs = assay: Whole-cell patch-clamp, unitary Cx43 hemichannel current activity in HeLa-Cx43 cells; type: cell-based; conditions: for nominal open probability (NPo) of Cx43 HCs: preincubated 45 min, HeLa-Cx43, step −30 to +70 mV, 30 s, mean ± SEM, control 0.48 ± 0.02; for reduction of NPo of Cx43 HCs: vs control; for conductance γ of Cx43 HC, subconductance state, transition histogram / unitary conductance γ of Cx43 HC, fully open state, transition histogram: Figure 3B, mean ± SD
Excerpt: as §1, §2, §3

Panx1 channel = conditions: some evidence; cited from earlier work
Excerpt: The representative traces depicted in Figure 1A (enlarged display in Supplementary Figure S1) show unitary Panx1 current activities evoked by repeated (every 40 s) Vm steps from a holding potential of −30 mV to +70 mV (with a duration of 30 s) in voltage-clamp experiments (using whole-cell patch-clamp recording). Under control conditions, a single channel conductance of ~65 pS was observed as determined from the channel transition histograms shown in Figure 1B, i.e., below the 100 pS range, which is typical for voltage-dependent Panx1 channel-opening activity. We tested the effec ...

[3] = 100 μM ^10Panx1 extracellular, N = 12, n = 88
[4] = 200 μM ^10Panx1 extracellular, N = 11, n = 97

## WRQAAFVDSY [^10Panx1]
Panx1 channels [1]; 100 µM ^10Panx1 extracellular
  flickering frequency (fast-flickering closures) of Panx1 channel: 67 Hz
Panx1 channels [1]; 100 μM ^10Panx1 extracellular, N = 11 cells, n = 106 traces
  nominal open probability (NPo) of Panx1 channels: 0.28 ± 0.03
Panx1 channels [1]; 100 μM ^10Panx1 extracellular
  reduction of NPo of Panx1 channels: 26.0% and ~ 25%
Panx1 channels [1]; 200 µM ^10Panx1 extracellular
  flickering frequency (fast-flickering closures) of Panx1 channel: 84 Hz
Panx1 channels [1]; 200 μM ^10Panx1 extracellular, N = 12 cells, n = 116 traces
  nominal open probability (NPo) of Panx1 channels: 0.19 ± 0.01
Panx1 channels [1]; 200 μM ^10Panx1 extracellular
  reduction of NPo of Panx1 channels: 49.5%
Panx1 channels [1]; 500 µM ^10Panx1 extracellular
  flickering frequency (fast-flickering closures) of Panx1 channel: 146 Hz
Panx1 channels [1]; 500 μM ^10Panx1 extracellular, N = 11 cells, n = 76 traces
  nominal open probability (NPo) of Panx1 channels: 0.13 ± 0.02
Panx1 channels [1]; 500 μM ^10Panx1 extracellular
  reduction of NPo of Panx1 channels: 66.0%
Panx1 channels [1]; ^10Panx1 extracellular, 100, 200 and 500 µM
  inhibition of Panx1 channel-opening activity (in words): Concentration-Dependently Inhibited
Panx1 channels [1]; ^10Panx1 extracellular, 100 and 200 μM, Figure 1C
  effect on open-state events of Panx1, all-point histograms: clearly decreased the frequency of open-state events; also recorded: open-state peaks decreased in height while the closed-state peaks increased
Panx1 channels [1]; ^10Panx1 extracellular, Figure 1
  subconductance gating of Panx1 channels: did not induce the subconductance gating of Panx1 channels
Cx46 HC
  effect on Cx46 HC peak currents: partially inhibit Cx46 HC peak currents
Cx43 or Panx1 channels
  selectivity for Cx43 or Panx1 channels: good selectivity
Panx1 channels [2]
  effect on ATP release from Panx1-overexpressing cells: inhibits ATP release
Cx43 HCs; 100 μM ^10Panx1 extracellular, N = 12 cells, n = 88 traces
  nominal open probability (NPo) of Cx43 HCs: 0.30 ± 0.03
Cx43 HCs; 100 μM ^10Panx1 extracellular, significant
  reduction of NPo of Cx43 HCs: 37%
Cx43 HCs; 200 μM ^10Panx1 extracellular, N = 11 cells, n = 97 traces
  nominal open probability (NPo) of Cx43 HCs: 0.08 ± 0.01
Cx43 HCs; 200 μM ^10Panx1 extracellular
  reduction of NPo of Cx43 HCs: ~ 83% and 83%
Cx43 HCs; 500 μM ^10Panx1 extracellular, N = 8 cells, n = 53 traces
  nominal open probability (NPo) of Cx43 HCs: 0.03 ± 0.01
Cx43 HCs; 500 μM ^10Panx1 extracellular
  reduction of NPo of Cx43 HCs: 94%
Cx43 HCs; [3]
  conductance γ of Cx43 HC, subconductance state, transition histogram: 81 ± 29 pS
  unitary conductance γ of Cx43 HC, fully open state, transition histogram: 202 ± 57 pS
Cx43 HCs; [4]
  conductance γ of Cx43 HC, subconductance state, transition histogram: 78 ± 27 pS
  unitary conductance γ of Cx43 HC, fully open state, transition histogram: 216 ± 74 pS
Cx43 HCs; Figure 3C, 100 μM ^10Panx1 extracellular
  conductance γ of Cx43 HC, all-point histogram: 201 ± 36 pS
Cx43 HCs; Gap19 intracellular / ^10Panx1 extracellular, 100-500 μM (Gap19 100–200 μM)
  inhibition of Cx43 HC opening activity (in words): Inhibited; also recorded: concentration-dependent and significant inhibition; also recorded: inhibits Cx43 HCs over the 100–500 µM concentration range
Cx43 HCs; Gap19 intracellular / ^10Panx1 extracellular, from 100 µM
  effect on Cx43 HC gating (fully open state vs subconductance state): increasing the frequency of subconductance transitions while decreasing the frequency of transitions to the fully open state; also recorded: reduced the propensity of gating to the main open state but increased the incidence of gating to the HC subconductance state
Cx43 HCs; ^10Panx1 extracellular, all the concentrations tested (100, 200, 500 μM)
  relative reduction of Cx43 HC function vs Panx1 channel function (selectivity): more strongly reduces Cx43 HC function than Panx1 channel function at all the concentrations tested
Panx1 channel
  interaction with the pore of the channel protein: some evidence pointing to an interaction with the pore of the channel protein
